Measurements from US7300503B2, “Dye mixture and ink containing the same, inkjet recording method and image forming method” (Fujifilm Corporation, priority 2004, dated 2007).

Test: Color toner: light fastness of image
Assay type: physicochemical
Conditions: xenon light 85,000 lx, 5 days, dye remaining ratio
Experimental: A mixture of 3 parts by weight of each of the phthalocyanine compounds (Compounds 101, 102, 103 and 107) according to the invention and 100 parts by weight of a resin for toner (styrene-acrylate copolymer, trade name: Hymer TB-1000F, produced by Sanyo Chemical Industries, Ltd.) was pulverized in a ball mill and melt-blended by heating at 150° C. After cooling, the resulting solid was coarsely pulverized by a hammer mill and then finely pulverized by an air jet-type pulverizer. The particles were classified to select those having a particle size of 1 to 20 micrometer to prepare a toner. To 10 parts by weight of the toner, 900 parts by weight of carrier iron powder (trade name: FEV250/400, produced by Powdertech Co., Ltd.) was uniformly blended to prepare a developer. Each developer was prepared in the same manner as above except for using 3 parts by weight of dye or 6 parts by weight of pigment as a comparative coloring agent as shown in Table 7 below. Using the developer, duplicate was conducted by a dry type plain paper electrophotographic copying machine (trade name: NP-5000 produced by Canon Inc.).
For the evaluation, by the developer using the color toner containing the compound according to the invention, a reflection image and a transmission image were prepared on paper and OHP sheet according to the above-described image forming method, respectively. The evaluation was conducted in the following manner. A toner adhesion amount was in a range of 0.7±0.05 mg/cm^2 for the evaluation.
With the image formed, color tone and light fastness were evaluated. Regarding the color tone, the evaluation was visually conducted by a three-stage rating of best, good and poor. In Table 7, symbols ∘, Δ and × mean best color tone, good color tone and poor color tone, respectively. The light fastness was evaluated by measuring image density (Ci) just after the recording, irradiating the image with xenon light (85,000 1×) using Weatherometer (Atlas C. 165) for 5 days and then measuring again image density (Cf), and calculated a dye remaining ratio ([…]). The image density was measured by a reflection densitometer (X-Rite 310TR). In Table 7, symbols ∘, Δ and × mean the dye remaining ratio of 90% or more, the dye remaining ratio of less than 90% to 80% and the dye remaining ratio of less than 80%, respectively.

Which “Light Fastness” value does the source give for `Cc1ccc(Nc2ccc(Nc3ccc(C)cc3)c3c2C(=O)c2c(Nc4ccc(C)cc4)ccc(Nc4ccc(C)cc4)c2C3=O)cc1` [Comparative Dye 4] here?
Its value is “Δ (the dye remaining ratio of less than 90% to 80%)”.

For C.I. Solvent Blue 38, which “Light Fastness” value is on record?
Its value is “∘ (the dye remaining ratio of 90% or more)”.

With C.I. Solvent Blue 70 as the compound, how does the “Light Fastness” value read?
The value was “∘ (the dye remaining ratio of 90% or more)”.

Which “Light Fastness” value does the source give for `CNc1ccc(O)c2c1C(=O)c1c(O)ccc(NC)c1C2=O` [Comparative Dye 3] here?
The value was “Δ (the dye remaining ratio of less than 90% to 80%)”.
